# Test: Concentration required to inhibit PGD-2 induced change in the shape of human eosinophils expressing CRTH2
row,IC50 [nM],Compound
1,908,Cc1c(CC(=O)O)c2cc(F)ccc2n1S(=O)(=O)c1ccc(Cl)cc1 [[1-(4-Chloro-benzenesulfonyl)-5-fluoro-2-methyl-1H-indol-3-yl]-acetic acid]
2,74,Cc1c(CC(=O)O)c2cc(F)ccc2n1S(=O)(=O)c1ccc(S(C)(=O)=O)cc1 [[5-Fluoro-1-(4-methanesulfonyl-benzenesulfonyl)-2-methyl-1H-indol-3-yl]-acetic acid]

# From BindingDB's records for doi:10.1021/jm050519b (Oxagen, 2005)
